Reference: patent US20040234992A1, “Method of detection of conformational change in a nucleic acid duplex by treatment with oxidising or reactive agent as a result of exposure to environmental or chemical conditions” (priority 2001, published 2004)

Key:
calf thymus DNA (Z-DNA) = test: Permanganate oxidation of calf thymus Z-DNA (NaCl) incubated with intercalators; conditions: for Level of oxidation (induced by chemical) Net A420 nm: Z-DNA (NaCl), Expt minus Control, 2 min-1 h; for Level of oxidation (induced by chemical) Net A420 nm / ΔA420 nm (2 min-1 h) (Expt): 35° C.; for ΔA420 nm (2 min-1 h) (Expt): calf thymus DNA + NaCl + intercalator 6.3 nmol + KMnO4
Experimental: The intercalator (10 μl, […]) was incubated with the solution containing calf thymus DNA (5 μl, 8.27 μg) and NaCl (600 μl, 5M NaCl solution) in water (355 μl) at 40° C. for 1 h. The reaction mixture was treated with KMnO4 (30μ of 10 mM solution) and maintained at 35° C. for 60 min. The absorbance at 420 nm was obtained at 2 min and 60 min by Cary 300 spectrophotometer (Varian Inc.). The level of oxidation was based on the absorbance at A420 nm of the experiment and control (without DNA) experiments as described in the experimental section. Four intercalators (with published data on unwinding degree) were used in the experiment: doxorubicin (10°), daunomycin (12°), 9-aminoacridine (17°) and ethidium bromide (28°); and
Due to limited information about the degree of unwinding of intercalators, only four intercalators with different degree of unwinding were employed in the experiment: doxorubicin (10°), daunorubicin (12°), 9-aminoacridine (17°) and ethidium bromide (28°). The Z-DNA samples were mixed in equal amounts of intercalators and the reactions were carried out under identical conditions. Calf thymus DNA (5 μl, 8.27 μg) was incubated with NaCl (600 μl, SM NaCl solution), the DNA binding agent or intercalator (10 μl, 6.3 nmol) in distilled H2O (355 μl). 4 non-sequence specific intercalators were used in the model study: doxorubicin, daunorubicin, 9-aminoacridine and ethidium bromide. The reaction mixture was gently mixed on shaker at 40° C. for 1 h. After incubation time, KMnO4 (30 μl) was added to the reaction mixture and the resulting mixture was transferred to the quartz cuvette and the absorbance (420 nm) was obtained at 35° C. for 2- and 60-min time-points. The level of oxidation induced by intercalator is based on the net absorbance and calculated as follows:
Net A420 nm=[A420 nm of the Expt (60 min)−A420 nm of the Expt (2 min)]−[A420 nm of the Control (60 min)−A420 nm of the Control (2 min)]
Where Net A420 nm represents the level of oxidation of the DNA-chemical adduct.
The Expt=calf thymus DNA+NaCl+DNA binding agent+KMnO4
The Control=DNA binding agent+KMnO4.
The control experiment (without DNA binding agent) was treated under identical conditions as described above.

duplex DNA = conditions: published data; cited from earlier work

SMILES	Level of oxidation (induced by chemical) Net A420 nm (calf thymus DNA (Z-DNA))	ΔA420 nm (2 min-1 h) (Expt) (calf thymus DNA (Z-DNA))	degree of unwinding (duplex DNA)	rate of permanganate oxidation (kinetic data) (calf thymus DNA (Z-DNA); Z-DNA incubated with intercalator, ranking among the four intercalators)
Nc1c2ccccc2nc2ccccc12 [9-aminoacridine]	0.0726 arbitrary unit	0.1327	17 °	–
COc1cccc2c1C(=O)c1c(O)c3c(c(O)c1C2=O)C[C@@](O)(C(C)=O)C[C@@H]3O[C@H]1C[C@H](N)[C@H](O)[C@H](C)O1 [daunorubicin]	0.0957 arbitrary unit	0.1670	12 °	–
COc1cccc2c1C(=O)c1c(O)c3c(c(O)c1C2=O)C[C@@](O)(C(=O)CO)C[C@@H]3O[C@H]1C[C@H](N)[C@H](O)[C@H](C)O1 [doxorubicin]	0.1029 arbitrary unit	0.1427	10 °	fastest
